Our source for the IC50 values is ChEMBL document CHEMBL1136306, “Design and synthesis of a new fluorescent probe for cytochrome P450 3A4 (CYP 3A4)” (Bioorg Med Chem Lett, 2003).

This assay deals with Cytochrome P450 3A4 (Homo sapiens, UniProt P08684).
Cytochrome P450 3A4, sequence (P08684 whole entry): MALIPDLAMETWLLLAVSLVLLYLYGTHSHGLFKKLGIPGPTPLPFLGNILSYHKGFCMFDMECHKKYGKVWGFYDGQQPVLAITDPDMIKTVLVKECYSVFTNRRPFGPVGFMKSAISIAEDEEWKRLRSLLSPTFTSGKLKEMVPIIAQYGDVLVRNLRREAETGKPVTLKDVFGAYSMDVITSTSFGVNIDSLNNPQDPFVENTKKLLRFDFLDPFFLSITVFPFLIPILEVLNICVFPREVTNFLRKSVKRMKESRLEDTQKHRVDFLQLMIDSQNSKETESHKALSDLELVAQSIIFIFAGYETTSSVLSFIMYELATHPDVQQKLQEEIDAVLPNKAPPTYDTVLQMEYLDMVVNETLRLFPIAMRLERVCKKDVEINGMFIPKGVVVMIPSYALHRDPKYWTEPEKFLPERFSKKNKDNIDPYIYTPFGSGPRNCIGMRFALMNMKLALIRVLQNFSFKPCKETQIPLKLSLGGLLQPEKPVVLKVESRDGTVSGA

Consider `OC1N=C(c2ccccc2F)c2cc(Cl)ccc2-n2cncc21` (configuration not stated), for which half-maximal inhibition (IC50) was put at 10 µM.

With `OCc1ncc2n1-c1ccc(Cl)cc1C(c1ccccc1F)=NC2` [ALPHA-HYDROXY-MIDAZOLAM], the IC50 – broadly, the point on the concentration scale where inhibition reaches its midpoint – is 10 µM.
